Laboratory results published in ChEMBL document CHEMBL2016508, “Synthesis and biological activity of bi/tricyclic azasugars fused thiazolidin-4-one and thiazinan-4-one by microwave-assisted tandem Staudinger/aza-Wittig/cyclization” (2012).
Calls of active or inactive are those of the source. The calls are words filed in the database; no cut-off is given here.

Columns and labels:
T-cell [1] = assay: Effect on proliferation of Balb/C mouse T cells at 5 uM after 72 hrs by MTT assay; format: functional, cell-based
Saccharomyces cerevisiae = assay: Inhibition of yeast alpha-glucosidase using PNPG as substrate at 100 uM preincubated for 10 mins prior substrate addition measured after 10 mins by UV-Vis spectrophotometry
Prunus dulcis = assay: Inhibition of almonds beta-glucosidase using D-(-)salicin as substrate at 100 uM preincubated for 10 mins prior substrate addition measured after 10 mins by UV-Vis spectrophotometry
T-cell [2] = assay: Effect on proliferation of Balb/C mouse T cells at 50 uM after 72 hrs by MTT assay; format: functional, cell-based
YAC-1 [3] = assay: Immunopotentiating activity in Balb/C mouse NK cells assessed as induction of killing activity against YAC-1 cells at 50 uM after 4 hrs by MTT assay; format: functional
Bacillaceae = assay: Inhibition of Bacillaceae alpha-amylase using starch as substrate at 100 uM preincubated for 10 mins prior substrate addition measured after 10 mins by UV-Vis spectrophotometry
YAC-1 [4] = assay: Immunopotentiating activity in Balb/C mouse NK cells assessed as induction of killing activity against YAC-1 cells at 5 uM after 4 hrs by MTT assay; format: functional

inhibition (Saccharomyces cerevisiae)	inhibition (Prunus dulcis)	inhibition (Bacillaceae)	SMILES	Activity (T-cell [1])	Activity (T-cell [2])	Activity (YAC-1 [3])	Activity (YAC-1 [4])
inactive	inactive	inactive	O=C1c2cccnc2S[C@@H]2[C@H](O)[C@H](O)[C@H](O)CN12	inactive	inactive	71%	45%
inactive	35%	inactive	O=C1c2cccnc2S[C@H]2[C@@H](O)[C@@H](O)[C@H](O)CN12	inactive	inactive	97%	67%
inactive	19%	inactive	O=C1c2cccnc2S[C@@H]2[C@@H](O)[C@@H](O)[C@H](O)CN12	inactive	inactive	81%	55%
inactive	inactive	inactive	O=C1c2cccnc2S[C@H]2[C@H](O)[C@H](O)[C@H](O)CN12	inactive	inactive	inactive	inactive
inactive	19%	inactive	O=C1CS[C@H]2[C@@H](O)[C@@H](O)[C@H](O)CN12	inactive	inactive	93%	72%
inactive	inactive	inactive	O=C1CS[C@@H]2[C@H](O)[C@H](O)[C@H](O)CN12	inactive	inactive	87%	70%
inactive	23%	inactive	O=C1CS[C@H]2[C@H](O)[C@H](O)[C@H](O)CN12	inactive	inactive	inactive	inactive
inactive	18%	inactive	O=C1CCS[C@H]2[C@H](O)[C@H](O)[C@H](O)CN12	inactive	inactive	inactive	inactive
inactive	inactive	inactive	O=C1c2ccccc2S[C@@H]2[C@@H](O)[C@@H](O)[C@H](O)CN12	inactive	inactive	inactive	inactive
inactive	inactive	inactive	O=C1CCS[C@@H]2[C@@H](O)[C@@H](O)[C@H](O)CN12	inactive	inactive	inactive	inactive
inactive	inactive	inactive	O=C1CS[C@@H]2[C@@H](O)[C@@H](O)[C@H](O)CN12	inactive	inactive	inactive	inactive
inactive	inactive	inactive	O=C1c2ccccc2S[C@H]2[C@H](O)[C@H](O)[C@H](O)CN12	inactive	inactive	inactive	inactive
inactive	inactive	inactive	O=C1c2ccccc2S[C@H]2[C@@H](O)[C@@H](O)[C@H](O)CN12	inactive	inactive	73%	46%
inactive	inactive	inactive	O=C1c2ccccc2S[C@@H]2[C@H](O)[C@H](O)[C@H](O)CN12	inactive	inactive	inactive	inactive
inactive	inactive	inactive	O=C1CCS[C@@H]2[C@H](O)[C@H](O)[C@H](O)CN12	inactive	inactive	inactive	inactive
inactive	inactive	inactive	O=C1CCS[C@H]2[C@@H](O)[C@@H](O)[C@H](O)CN12	inactive	inactive	45%	69%
